# Like-named read-outs stand apart in the source and are kept apart here.
# Legend:
# [1] = tested on: T. brucei brucei; parameters: method as in PMID 20359874; details: life stage or form has not been reported; cited from earlier work
# [2] = In vitro assay for cytotoxicity on mammalian cells (resazurin); type: cell-based, rat
# Procedure: Assays were performed in 96 well microtiter plates (4 × 10^4 L6 cells/well), each well containing 100 μL of RPMI 1640 medium supplemented with 1% L-glutamine (200 mM) and 10% FBS. L6 cells are a primary cell line derived from rat skeletal myoblasts. Serial drug dilutions of seven 3-fold dilution steps covering a range from 90 to 0.123 μg/mL were prepared. After 72 h of incubation, the plates were inspected under an inverted microscope to assure growth of the controls and sterile conditions. Resazurin solution (10 μL) (12.5 mg resazurin in 100 mL double-distilled water) was then added to each well and the plates incubated for another 2 h. The plates were then read with a Spectramax Gemini XS microplate fluorometer (Molecular Devices Cooperation, Sunnyvale, CA, USA) using an excitation wavelength of 536 nm and an emission wavelength of 588 nm. Data were analyzed using the microplate reader software Softmax Pro (Molecular Devices Cooperation, Sunnyvale, CA, USA). From the sigmoidal inhibition curves, the IC50 values were calculated. Podophyllotoxin was the positive control.
# [3] = tested on: P. falciparum K1 strain; assay: In vitro assay for Plasmodium falciparum ([3H]-hypoxanthine incorporation); type: cell-based
# Procedure: Activity against the erythrocytic stages of P. falciparum was determined using an in vitro modified [^3H]-hypoxanthine incorporation assay, using the chloroquine- and pyrimethamine-resistant K1 strain [68]. Compounds were dissolved in DMSO at 10 mg/mL and further diluted in medium before added to parasite cultures incubated in RPMI 1640 medium without hypoxanthine, supplemented with HEPES (5.94 g/l), NaHCO3 (2.1 g/L), neomycin (100 U/mL), AlbumaxR (5 g/L), and washed human red cells A+ at 2.5% haematocrit (0.3% parasitaemia). Serial drug dilutions of seven 3-fold dilution steps covering a range from 90 to 0.123 μg/mL were prepared. The 96 well plates were incubated in a humidified atmosphere at 37 °C; 4% CO2, 3% O2, 93% N2. After 48 h 50 μL of ^3H-hypoxanthine (=0.5 μCi) was added to each well of the plate. The plates were incubated for a further 24 h under the same conditions. The plates were then harvested with a Betaplate™ cell harvester (Wallac, Zurich, Switzerland), and the red blood cells transferred onto a glass fiber filter then washed with distilled water. The dried filters were inserted into a plastic foil with 10 mL of scintillation fluid, and counted in a Betaplate™ liquid scintillation counter (Wallac, Zurich, Switzerland). […] IC50 values were calculated from the sigmoidal inhibition curves using Microsoft Excel. Chloroquine was used as positive control drug.
# [4] = tested on: P. falciparium FCR-3 strain; parameters: method as in PMID 23082579; details: cited from earlier work
# [5] = tested on: L. infantum promastigotes; parameters: method as in PMID 31151304; details: 24 h MTT assay; cited from earlier work
# [6] = tested on: Trypanosoma brucei rhodesiense STIB 900; assay: In vitro assay for Trypanosoma brucei rhodesiense (resazurin); type: cell-based
# Procedure: Trypanosoma brucei rhodesiense STIB 900 strain, isolated in 1982 from a human patient in Tanzania and, after several mouse passages, cloned and adapted to axenic culture conditions, was used in this assay. Minimum essential medium (50 μL) supplemented with 25 mM HEPES, 1 g/L additional glucose, 1% MEM non-essential amino acids (100×), 0.2 mM 2-mercaptoethanol, 1 mM Na-pyruvate, and 15% heat inactivated horse serum was added to each well of a 96 well microtiter plate. Serial drug dilutions of seven 3-fold dilution steps covering a range from 90 to 0.123 μg/mL were prepared, and then 4 × 10^4 blood stream forms of T. b. rhodesiense STIB 900 in 50 μL were added to each well and the plate was incubated at 37 °C under a 5% CO2 atmosphere for 72 h. Resazurin solution (resazurin, 12.5 mg in 100 mL double-distilled water) (10 μL) was then added to each well and incubated for a further 2–4 h. At the end of the assay, the plates were read with a Spectramax Gemini XS microplate fluorometer (Molecular Devices Cooperation, Sunnyvale, CA, USA) using an excitation wavelength of 536 nm and an emission wavelength of 588 nm. Data were analyzed using the microplate reader software Softmax Pro (Molecular Devices Cooperation, Sunnyvale, CA, USA). Melarsoprol was used as standard drug.
# [7] = tested on: promastigote forms of L. chagasi; parameters: method as in PMID 23558998, PMID 23850505; details: cited from earlier work
# [8] = tested on: L. donovani (strain MHOM/ET/67/L82) amastigotes; assay: In vitro assay for Leishmania donovani axenic amastigotes (resazurin); type: cell-based; details: 72 h, read-out: IC50 Leishmania donovani
# Procedure: Amastigotes of L. donovani (strain MHOM/ET/67/L82) were grown in axenic culture at 37 °C in SM medium at pH 5.4 supplemented with 10% heat-inactivated FBS under an atmosphere of 5% CO2. Culture medium (100 μL) with 10^5 amastigotes from axenic culture with or without a serial drug dilution was seeded in 96 well microtiter plates. Serial drug was prepared covering a range of dilutions from 90 to 0.123 μg/mL. After 72 h of incubation, the plates were inspected under an inverted microscope to assure growth of the controls and sterile conditions. Subsequently, 10 μL resazurin solution (12.5 mg resazurin dissolved in 100 mL double-distilled water) was added to each well and the plates were incubated for another 2 h. The plates were then read with a Spectramax Gemini XS microplate fluorometer (Molecular Devices Cooperation, Sunnyvale, CA, USA) using an excitation wavelength of 536 nm and an emission wavelength of 588 nm. Data were analyzed using the software Softmax Pro (Molecular Devices Cooperation, Sunnyvale, CA, USA). A decrease of fluorescence (=inhibition) was expressed as percentage of the fluorescence of control cultures and plotted against the drug concentrations. From the sigmoidal inhibition curves, the IC50 values were calculated. Miltefosine was used as a reference drug.
SMILES,IC50 T. brucei brucei [1],IC50 at 72 h ([2]; rat),"IC50 ([3]; K1, read-out: IC50 Plasmodium falciparum)",IC50 in vitro antimalarial activity [4],IC50 L. infantum promastigotes [5],"IC50 ([6]; Trypanosoma brucei; STIB 900 blood stream forms, 72 h; means of two independent determinations ± deviation from the mean; read-out: IC50 Trypanosoma brucei rhodesiense)",selectivity index (IC50 value against L6 mammalian cells/IC50 value against parasite) ([6]; against T. b. rhodesiense),IC50 promastigote forms of L. chagasi [7],IC50 [8],"IC50 at 72 h ([2]; L6 cells (rat skeletal myoblasts), rat skeletal myoblasts, 72 h, means of two determinations ± deviation, read-out: IC50 Cytotoxicity L6 cells)","IC50 ([3]; K1 strain (chloroquine- and pyrimethamine-resistant), erythrocytic stages, means of two determinations ± deviation, read-out: IC50 Plasmodium falciparum)","IC50 ([6]; Trypanosoma brucei, 72 h, STIB 900 blood stream forms, 72 h; means of two independent determinations ± deviation from the mean; read-out: IC50 Trypanosoma brucei rhodesiense)","IC50 ([8]; axenic amastigotes, means of two determinations ± deviation)"
Cc1ccc(C(C)C)cc1O [Carvacrol],11.3 µg/mL,48.8 ± 1.1 µg/mL,6.4 ± 0.9 µg/mL,10 µg/mL,9.8 µg/mL,0.15 ± 0.04 µg/mL,327.5,2.3 µg/mL,13.1 ± 3.9 µg/mL,,,,
Cc1ccc(C(C)C)c(O)c1 [Thymol],22.9 µg/mL,,,10 µg/mL,7.2 µg/mL,,,9.8 µg/mL,,51.8 ± 6.2 µg/mL,5.7 ± 0.03 µg/mL,0.11 ± 0.01 µg/mL,17.3 ± 4.1 µg/mL
